In PMC12385147, “Discovery of Novel 2-Substituted Aniline Pyrimidine Based Derivatives as Potent Mer/c-Met Dual Inhibitors with Improvement Bioavailability” (Biomolecules, 2025):
Where two headings read alike, the source gives them in different places.

Key:
hERG potassium channel = hERG potassium channel (Homo sapiens, UniProt Q12809); experiment: hERG potassium channel QPatch automated patch clamp in CHO cells
[1] = Liver microsome stability assay; format: in vitro ADME, human
HepG2 = experiment: Antiproliferation CCK-8 assay, HepG2; format: cell-based; conditions: Homo sapiens, CCK-8, 72 h
Method: (§1) The HepG2, MDA-MB-231, and HCT116 cell lines were derived from our own laboratory (the laboratory of our collaborator, Dr. Xiaolei Zhou, at College of Food Science and Biology in Hebei University of Science and Technology). The antiproliferative activities were assessed using the CCK-8 assay. Cell viability was measured according to the manufacturer’s instructions for the Cell Counting Kit-8 (Meilunbio, Dalian, China). In this assay, 2.5 × 10^3 cells per well were seeded into 96-well plates.
(§2) After an initial 12 h incubation, cancer cells were exposed to varying concentrations of compound 17c for 72 h. Following CCK-8 solution addition and 2 h incubation, the absorbance at 450 nm was measured using a BioTek Synergy HTX microplate reader. Experiments included triplicate wells with three independent replicates. The IC50 values for compound 17c were derived from an analysis of the dose–response curves in GraphPad PRISM 9.5.

Mer kinase = biological target: T1, Mer kinase (Homo sapiens, UniProt Q12866); experiment: Mer kinase inhibition assay (TK-Sub-Biotin / cryptate detection); format: biochemical; conditions: means from three independent experiments
T1 construct: purchased Invitrogen (Shanghai, China)
T1 sequence (Q12866 21-999): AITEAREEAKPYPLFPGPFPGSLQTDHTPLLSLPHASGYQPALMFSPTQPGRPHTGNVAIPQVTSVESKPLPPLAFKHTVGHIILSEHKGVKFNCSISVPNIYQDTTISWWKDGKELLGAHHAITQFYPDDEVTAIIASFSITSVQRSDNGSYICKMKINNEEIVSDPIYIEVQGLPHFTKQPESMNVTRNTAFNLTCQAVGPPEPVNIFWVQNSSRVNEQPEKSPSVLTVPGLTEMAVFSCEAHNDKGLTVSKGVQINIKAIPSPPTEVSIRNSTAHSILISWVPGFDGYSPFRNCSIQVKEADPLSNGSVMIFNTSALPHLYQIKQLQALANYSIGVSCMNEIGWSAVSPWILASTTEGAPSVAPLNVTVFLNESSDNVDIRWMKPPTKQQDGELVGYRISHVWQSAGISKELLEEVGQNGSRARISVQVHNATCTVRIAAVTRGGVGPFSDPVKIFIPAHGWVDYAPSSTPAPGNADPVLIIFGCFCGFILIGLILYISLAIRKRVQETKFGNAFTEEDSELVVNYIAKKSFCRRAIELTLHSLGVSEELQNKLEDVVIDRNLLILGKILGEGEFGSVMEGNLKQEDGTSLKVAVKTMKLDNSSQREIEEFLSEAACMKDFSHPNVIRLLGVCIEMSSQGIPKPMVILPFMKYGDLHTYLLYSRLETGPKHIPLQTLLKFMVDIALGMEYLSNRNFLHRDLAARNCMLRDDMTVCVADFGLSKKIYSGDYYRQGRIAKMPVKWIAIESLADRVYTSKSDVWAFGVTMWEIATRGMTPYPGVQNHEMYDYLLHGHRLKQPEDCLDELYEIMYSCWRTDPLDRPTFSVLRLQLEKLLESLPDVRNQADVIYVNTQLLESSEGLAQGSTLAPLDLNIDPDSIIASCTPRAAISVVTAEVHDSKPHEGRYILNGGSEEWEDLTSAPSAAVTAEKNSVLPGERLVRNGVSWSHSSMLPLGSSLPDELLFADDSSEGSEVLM

HCT116 = experiment: Antiproliferation CCK-8 assay, HCT116; format: cell-based; conditions: for IC50: Homo sapiens, HCT-116
Method: as §1, §2

Chain of hERG potassium channel (Q12809 whole entry): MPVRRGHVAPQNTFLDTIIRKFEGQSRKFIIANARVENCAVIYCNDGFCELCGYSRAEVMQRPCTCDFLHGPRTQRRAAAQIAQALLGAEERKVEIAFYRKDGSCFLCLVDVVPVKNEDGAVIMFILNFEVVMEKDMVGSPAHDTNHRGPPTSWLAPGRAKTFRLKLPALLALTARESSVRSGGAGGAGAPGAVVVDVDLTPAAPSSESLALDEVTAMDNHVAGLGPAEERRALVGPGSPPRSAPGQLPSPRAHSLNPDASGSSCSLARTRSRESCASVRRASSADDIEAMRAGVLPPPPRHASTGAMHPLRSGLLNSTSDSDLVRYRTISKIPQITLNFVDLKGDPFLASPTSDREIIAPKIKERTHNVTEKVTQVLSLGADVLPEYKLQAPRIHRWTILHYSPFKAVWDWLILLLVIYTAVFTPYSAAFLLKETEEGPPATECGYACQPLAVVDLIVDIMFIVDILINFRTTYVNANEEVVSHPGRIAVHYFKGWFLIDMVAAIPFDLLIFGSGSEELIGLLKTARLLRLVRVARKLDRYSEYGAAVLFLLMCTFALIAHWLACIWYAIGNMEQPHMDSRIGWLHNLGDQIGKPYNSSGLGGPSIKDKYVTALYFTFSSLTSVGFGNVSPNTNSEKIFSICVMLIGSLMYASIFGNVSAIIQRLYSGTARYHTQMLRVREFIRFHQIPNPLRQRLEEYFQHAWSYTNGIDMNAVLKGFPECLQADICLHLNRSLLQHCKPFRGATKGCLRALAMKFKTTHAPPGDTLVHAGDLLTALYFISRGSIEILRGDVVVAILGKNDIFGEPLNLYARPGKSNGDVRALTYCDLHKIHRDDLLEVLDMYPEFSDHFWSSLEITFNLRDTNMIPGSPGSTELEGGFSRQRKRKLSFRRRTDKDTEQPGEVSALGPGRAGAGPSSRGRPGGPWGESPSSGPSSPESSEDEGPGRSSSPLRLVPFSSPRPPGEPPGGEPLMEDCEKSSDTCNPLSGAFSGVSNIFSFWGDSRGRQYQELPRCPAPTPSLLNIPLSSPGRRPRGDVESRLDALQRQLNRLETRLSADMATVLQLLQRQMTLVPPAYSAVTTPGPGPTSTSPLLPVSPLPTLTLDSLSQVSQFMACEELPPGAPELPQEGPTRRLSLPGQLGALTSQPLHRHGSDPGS

CL (intrinsic clearance) ([1]; human liver microsomes): 23.6 µL/min/mg
microsomal CLint ([1]; human, liver microsomes, pH 7.4, human liver microsomes, read-out: CL (intrinsic clearance)): 26 µL/min/mg
IC50 (HepG2): 460 ± 60 nM
IC50 (Mer kinase): 6.4 ± 1.8 nM
IC50 (HCT116; CCK-8, 72 h, read-out: IC50 HCT116): 3790 ± 1090 nM
IC50 (HCT116; CCK-8, read-out: IC50 HCT116 cells): 460 ± 60 nM
SMILES: Cc1c(C(=O)Nc2ccc(Oc3ccnc(Nc4cccc(OC5CCN(C)CC5)c4)n3)cc2)c(=O)n(-c2ccccc2)n1C [compound 17c, 1,5-dimethyl-N-(4-((2-((3-((1-methylpiperidin-4-yl)oxy)phenyl)amino)pyrimidin-4-yl)oxy)phenyl)-3-oxo-2-phenyl-2,3-dihydro-1H-pyrazole-4-carboxamide]
IC50 (hERG potassium channel): > 40000 nM
fold improvement over cabozantinib (HCT116; HCT116 cells): 17.1 fold
